Key:
zebrafish embryo = settings: in vivo, 24 h, 1 mM
Description: The toxicity study is carried out over 72 hours. The embryos are treated at 25 hpf with the doses used for the test of chemical compounds of each of the compounds, in a 96-well plate, in a final volume of 100 μl of the embryonic growth medium. The embryos are incubated 72 h at 28° C. The medium is changed every 24 hours. The survival rate of embryos and the appearance of developmental defects are analyzed daily.
At the same time, we analyzed the toxicity of althiazide after balancing with a solution containing althiazide at concentrations of 1 μM, 10 μM, 100 μM, 1000 μM for 24, 48 and 72 hours. The toxicity study was based on analysis of the percentage viability of the embryos after treatment. At concentrations of 1 μM, 10 μM and 100 μM, althiazide causes no toxicity even after 72 hours of treatment. A 50% toxicity is observed after treatment for 24 hours, the althiazide at the concentration of 1 mM.

MDA-MB-231 cells [1] = assay: Migration test on MDA-MB-231 cells (scratch test); format: cell-based, human; settings: 10, 50 and 100 μM, 18 h migration, FIG. 10
Description: Cell migration assays on the MDA-MB-231 cell line are performed in vitro in 96-well plates. The MDA-MB-231 cells were seeded at the density of 50000 cells per well, to form a monolayer. The cells are maintained in a DMEM culture medium supplemented with 0.2% fetal calf serum and incubated at 37° C., 5% CO2 and 1% O2 for 24 hours. The cell monolayer is injured with a pipette tip. The cells are then rinsed with PB S to remove the cells in suspension and the different treatments are added, as well as DMEM supplemented with 10% FCS. The cells are incubated for 18 hours at 37° C., 5% CO2 and 20% O2.
A first series of images of each well (center of the well) was carried out at the beginning of the experiment (t=0) and after 18 hours of migration (t=18) using a 4× objective Nikon microscope. The images were analyzed using ImageJ software (National Institutes of Health, USA).
The treatments were carried out in triplicate and the manipulation was carried out 3 times. […]
A first series of images of each well (center of the well) is performed at the beginning of the experiment (t=0) and after 18 h of migration (t=18) using a Nikon microscope −4× lens. The images were analyzed using Image J software (National Institute of Health, USA)

SNAIL = assay: q-RT-PCR expression of EMT markers in MDA-MB-231 cells under hypoxia: SNAIL; format: cell-based, human; settings: althiazide 100 μM, hypoxic conditions (1% O2), vs control, FIG. 11
Description: (§1) The cell cultures are carried out on human breast cancer epithelial cell lines MDA-MB-231 (HTB-26™), resulting from metastases present in a pleural effusion of a patient with a mammary adenocarcinoma. This line is used as a triple negative cancer cell model (no expression of ER-type nuclear estrogen receptors, nuclear progesterone receptors or overexpression of the oncogene encoding HER2 protein (Human Epidermal Growth factor Receptor-2).
(§2) The cells were cultured in DMEM medium (Eurobio, Fance) supplemented with 10% fetal calf serum (FCS) (Eurobio, Fance) at 37° C., 5% CO2. The medium was changed every 3 days.
(§3) The cells were placed in a controlled atmosphere at 1% oxygen 24 hours before the application of the different treatments.
(§4) The expression of the mRNAs is measured by the q-RT-PCR method. The cells were seeded at the density of 500,000 cells/well in 6-well plates. After 24 hours at 37° C., 5% CO2 and 1% O2, the medium was renewed and added the various treatments. RNA was isolated using TRI Reagent® (sigma), assayed and retro-transcribed into complementary DNA using the PrimeScript RT Reagent Kit (Takara). The expression levels of the mRNA of the genes of interest were determined by quantitative PCR (LightCycler® 480 Instrument II) with the primers listed in Table 2: […]
(§5) The results are calculated using the Delta Delta Ct (Δ ΔCt) method.

VIMENTIN = assay: q-RT-PCR expression of EMT markers in MDA-MB-231 cells under hypoxia: VIMENTIN; format: cell-based, human; settings: althiazide 100 μM, hypoxic conditions (1% O2), vs control, FIG. 11
Description: as §1, §2, §3, §4, §5

MDA-MB-231 cells [2] = assay: Cytotoxicity potentiation test: MTT cell viability of MDA-MB-231 cells, doxorubicin +/- althiazide; format: cell-based, human
Description: as §1
The cell viability is determined via the IC50 index, measured by the MTT technique (2-(4,5-dimethyl-2-thiazolyl)-3,5-diphenyl-2H-tetrazolium bromide) (Mosmann, 1983). This colorimetric test is based on the reduction of yellow tetrazolium salts into insoluble purple formazan crystals in aqueous solution. The spectrophotometric measurement of the absorbance at 570 nm is directly proportional to the number of viable cells
The cells were seeded in 96-well plates at a density of 25,000 cells per well. After 24 h of culture at 37° C., 5% CO2 and 1% O2, the medium was renewed and supplemented with increasing doses of doxorubicin+/−althiazide. Cells were incubated for 24 h at 37° C., 5% CO2 and 1% O2. The MDA-MB-231 cells were washed and then incubated for 1 hour at 37° C. with 100 μl of a 0.5 mg/ml MTT solution prepared in culture medium. The formazan crystals were dissolved in […] and the absorbance measured at 570 nm using the Tecan Sunrise spectrophotometer. The IC50 was determined using the Graphpad Prism 5.0 software. The treatments were carried out in triplicate and the manipulation was carried out 5 times.
The tests are carried out in cell culture in 96-well plates, on the cell line MDA-MB-231. The MDA-MB-231 cells are seeded in 96-well plates at a density of 10,000 cells and incubated 24 h at 37° C., 5% CO2 and 1% O2. The medium is then renewed and added with increasing concentrations of doxorubicin+/−100 μM althiazide. The cells are incubated for an additional 24 hours at 37° C., 5% CO2 and 1% O2. Treatments were made in triplicas and the experiment was repeated 5 times.
A cell viability test is then performed according to the method described in Materials and methods.
Results are normalized to the control condition (FIG. 12)

In the case of `C=CCSCC1Nc2cc(Cl)c(S(N)(=O)=O)cc2S(=O)(=O)N1` (racemic) [althiazide], the “toxicity (percentage viability of the embryos)” value (zebrafish embryo) is reported as 50%, the “decrease of the migration” value (MDA-MB-231 cells [1]) is reported as about 50% and the “change in expression of SNAIL” value (SNAIL) is reported as −19%. For the same compound, the “change in expression of VIMENTIN” value (VIMENTIN) was −22%, the “reduction of the IC50 of doxorubicin” value (MDA-MB-231 cells [2]; 100 μM althiazide added to doxorubicin, 24 h, 1% O2) was 45% and the “increase of the effects of doxorubicin” value (MDA-MB-231 cells [2]; 100 μM althiazide, doxorubicin between 25 and 2.5 μM, FIG. 12) was “about 15%”.

Reference: patent US20230137849A1, “USE OF A COMPOUND OF THE DIURETICS CLASS FOR TREATING CANCER” (AZELEAD, priority 2017, published 2023)
